Assay results taken from publication PMC11790763, “A Peptide Motif Covering Splice Site B in Neuroligin-1 Binds to Aβ and Acts as a Neprilysin Inhibitor” (Molecular Neurobiology, 2024).
Bridges are numbered along the chain shown (N, C = ends). Roman numbers before positions name the chains, in order. Where no end group is shown, it is not given here.

T1: brain-derived NEP (Mus musculus, UniProt Q61391)
T1 construct: Clear supernatants were used as membrane-extracted fractions; from tissue; host or cells: adult mouse brain without cerebellum, Triton X-100-extracted membrane fraction
T1 sequence (Q61391 1-750): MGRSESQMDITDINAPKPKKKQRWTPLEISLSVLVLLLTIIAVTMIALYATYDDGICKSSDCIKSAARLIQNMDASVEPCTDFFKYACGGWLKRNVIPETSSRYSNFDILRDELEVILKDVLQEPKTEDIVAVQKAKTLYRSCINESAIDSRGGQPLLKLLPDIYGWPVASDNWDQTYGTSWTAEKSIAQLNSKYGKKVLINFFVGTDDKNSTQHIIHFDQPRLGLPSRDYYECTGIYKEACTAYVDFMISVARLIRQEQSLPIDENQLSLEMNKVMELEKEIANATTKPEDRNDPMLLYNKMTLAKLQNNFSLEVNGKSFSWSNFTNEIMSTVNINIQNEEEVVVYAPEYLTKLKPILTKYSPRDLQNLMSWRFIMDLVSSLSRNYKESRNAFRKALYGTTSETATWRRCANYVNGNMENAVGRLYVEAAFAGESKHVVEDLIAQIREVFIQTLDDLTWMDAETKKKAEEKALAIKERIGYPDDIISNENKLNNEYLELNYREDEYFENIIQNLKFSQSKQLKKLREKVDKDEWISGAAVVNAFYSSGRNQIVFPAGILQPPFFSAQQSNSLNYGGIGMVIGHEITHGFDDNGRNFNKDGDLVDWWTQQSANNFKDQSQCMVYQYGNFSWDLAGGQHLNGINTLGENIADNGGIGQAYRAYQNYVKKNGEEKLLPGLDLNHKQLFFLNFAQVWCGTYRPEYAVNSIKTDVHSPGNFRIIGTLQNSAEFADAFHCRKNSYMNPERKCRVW


What was measured:
[1] = cited from earlier work
brain-derived NEP = biological target: T1, brain-derived NEP; experiment: Neprilysin activity in NEP-enriched brain membrane fraction of 5XFAD mice; assay type: biochemical, mouse (5XFAD); settings: 5XFAD mice membrane fraction; neurolide 10 μM; n = 6
Protocol: To measure NEP activity in brain tissue, whole brains without cerebellum were dissected from adult mice (C57Bl/6j or 5XFAD) and homogenized with a Teflon-glass homogenizer in five volumes (w/v) of ice-cold lysis buffer containing PBS (pH 7.4), 0.25 M sucrose and protease inhibitor cocktail (Complete™, EDTA-free, Roche Diagnostics, Indianapolis, IN). The homogenates were centrifuged at 9000 × g for 15 min at 4 °C. The supernatants were further centrifuged at 20,000 × g at 4 °C for 20 min. The resulting pellets were solubilized in resuspension buffer containing PBS (pH 7.4) and 1% Triton X-100 for 1 h on ice and again centrifuged at 20,000 × g at 4 °C for 20 min. Clear supernatants were used as membrane-extracted fractions. Protein concentrations of Triton-extracted membrane fractions were determined using the Pierce BCA Protein Assay kit (Thermo Fisher Scientific). The standard assay mixture consisted of membrane fraction containing 40 μg total protein diluted in 40 μl of dilution buffer, 10 μl of testing compound (NL1, neurolide or vehicle), and 50 μl of NEP substrate (5-FAM/QXL; Anaspec) in a total volume of 100 μl. The reaction was initiated by adding substrate to the assay mixture. […] Fluorescence was measured at Ex/Em = 485/535 nm every 20 min for 2 h. The data were expressed as percentage of relative activity of neprilysin.

recombinant rat NL1 = biological target: T2, recombinant rat NL1 (Rattus norvegicus, UniProt Q62765); experiment: Surface plasmon resonance binding to immobilized NL1; settings: SPR, KD for Aβ1-42 versus KD for NX1β
T2 construct: the extracellular domain of NL1 was immobilized on a sensor chip; purchased R&D systems (Abingdon, UK)
Protocol: Binding analysis was performed on a Biacore 2000 SPR biosensor (GE Healthcare) at 25 °C using HBS-P (10 mM HEPES, pH 7.4, 150 mM NaCl, 0.005% [v/v] Surfactant P20) supplemented with 3 mM CaCl2 as a running buffer. Approximately 2000 Resonance Units (RU) of NL1 was immobilized on a CM4 sensor chip at a flow rate of 5 μl/min by amine coupling. Binding to serially diluted recombinant NX1β, used as a positive control, was performed as previously described. Aβ1-42 was dissolved in anhydrous DMSO to a stock concentration of 3.21 mM followed by serial dilution in running buffer. Peptide was injected into the chip, and binding experiments were performed at a flow rate of 20 μl/min, followed by regeneration of sensor chip with 10 μl of 15 mM NaOH and 150 mM NaCl. After subtraction of blank control, the binding curves were analyzed based on a nonlinear curve fitting using a 1:1 Langmuir binding model and the software package BIAevaluation 4 (GE Healthcare). The apparent equilibrium constant (KD) was calculated as kd/ka, in which ka and kd are the apparent association and dissociation constants, respectively.

| Molecule | passage of the blood–brain-barrier [1] | plasma/CSF ratio ([1]; systemically given) | levels in CSF ([1]; within 30 min after single s.c. administration) | NEP activity compared to untreated 5XFAD control (brain-derived NEP) | affinity constant KD of NL1 to Aβ, times lower compared to NX1β (recombinant rat NL1) |
| --- | --- | --- | --- | --- | --- |
| I: SEGNRWSNSTKGLFQRAKK-NH2 / II: SEGNRWSNSTKGLFQRAK / III: SEGNRWSNSTKGLFQRA / IV: SEGNRWSNSTKGLFQRA (amide I:18-IV:C, I:19-II:C, II:18-III:C; C-terminus assumed) [neurolide] | in the range of nanograms | approximately 20 | nanogram/low microgram levels | significant decrease | – |
| NL1: recombinant rat neuroligin-1, soluble ectodomain (R&D systems) (protein, UniProt Q62765 46-697, looked up, extracellular domain) extracellular domain: QKLDDVDPLVTTNFGKIRGIKKELNNEILGPVIQFLGVPYAAPPTGEHRFQPPEPPSPWSDIRNATQFAPVCPQNIIDGRLPEVMLPVWFTNNLDVVSSYVQDQSEDCLYLNIYVPTEDVKRISKECARKPGKKICRKGDIRDSGGPKPVMVYIHGGSYMEGTGNLYDGSVLASYGNVIVITVNYRLGVLGFLSTGDQAAKGNYGLLDLIQALRWTSENIGFFGGDPLRITVFGSGAGGSCVNLLTLSHYSEGNRWSNSTKGLFQRAIAQSGTALSSWAVSFQPAKYARILATKVGCNVSDTVELVECLQKKPYKELVDQDVQPARYHIAFGPVIDGDVIPDDPQILMEQGEFLNYDIMLGVNQGEGLKFVENIVDSDDGVSASDFDFAVSNFVDNLYGYPEGKDVLRETIKFMYTDWADRHNPETRRKTLLALFTDHQWVAPAVATADLHSNFGSPTYFYAFYHHCQTDQVPAWADAAHGDEVPYVLGIPMIGPTELFPCNFSKNDVMLSAVVMTYWTNFAKTGDPNQPVPQDTKFIHTKPNRFEEVAWTRYSQKDQLYLHIGLKPRVKEHYRANKVNLWLELVPHLHNLNDISQYTSTTTKVPSTDITLRPTRKNSTPVTSAFPTAKQDDPKQQPSPFSVDQRDYSTELS | – | – | – | – | approximately 11 times |
